# Experimental data published in patent US10550095B2, “Cancerous cell growth inhibiting compounds” (WISYS TECHNOLOGY FOUNDATION, INC., priority 2016, dated 2020).
# Where “and” joins values, the source holds several entries; their conditions need not be identical. Equal entries are not always repeated. Entries after “also recorded” stand apart in the source; their conditions may differ.
# Experiments:
# [1] = test system: zebrafish embryos; assay: Skin Lightening Efficacy of All Analogs on Zebrafish Embryos (Table 1); format: in vivo
# Experimental: (§1) The testing protocols for these compounds are as follows: • a. […] The embryos were monitored and imaged throughout their development to track the development of melanin pigment relative to a control group to which water was administered (Protocol 1). • b. […] The embryos were again monitored and imaged throughout their development relative to a control group to which water was administered (Protocol 2). • c. Additionally, to test the ability of the pigment to recover after being treated with our drugs, all embryos were treated at 24 hpf with the chemicals until the 48 hpf or 64 hpf time period, then washed with water to remove the treatment. The embryos were again monitored and imaged throughout their development relative to a control group to which water was administered (Protocol 3).
# (§2) The black pigment (or melanin) is very easy to observe in zebrafish. In brief, adult zebrafish are taken to breed embryos. Morphologically normal embryos of 24 hours post fertilization (hpf) stage were selected for incubation in the drugs from 24 to 76 hours. During the incubation, the embryos are monitored and imaged (see FIGS. 1 and 3) to track the development of melanin. […] To broaden the comparison with other skin-whitening products, this project can also test at least three other compounds, Kojic acid, Gallic acid and Haginin. […] In the meantime, the whole organism context also allows us to examine the toxicological profile, if any, of these compounds.
# [2] = test system: B16-F10 melanoma cells; assay: cells; format: cell-based
# [3] = test system: B16-F10 melanoma cells; assay: Melanin in melanoma cells; format: cell-based, mouse; details: for Melanin: melanoma cells
# Source text: (MEK-I is a known MEK inhibitor as a comparison purchased from Sigma): […]
# [4] = test system: zebrafish embryos; assay: Inhibition of melanin synthesis in zebrafish embryos, treated 24-76 hpf (Protocol 1); format: in vivo; details: for pigmentation in comparison to the control group: zebrafish embryos treated 24 to 76 hpf
# Experimental: as §1, §2
# [5] = test system: tyrosinase; assay: RT-qPCR of tyrosinase in melanoma cells; format: cell-based, mouse
# Source text: (§3) To understand how A11 inhibits melanoma proliferation, we examined the MITF expression level in A11-treated B16-F10 cells by western blot and RT-qPCR.
# (§4) The results of several qPCR experiments using melanoma cells were compiled in FIG. 20. Pax3 and sox10 are genes determine the melanocyte precursors while mit-f is the specific transcription factor that initiates melanocyte differentiation. Dct and tyr genes are expressed in differentiated melanocytes. […] The decrease in magnitude is not significant likely due to the very heterogeneous cell types in melanoma.
# [6] = test system: DCT (dopachrome tautomerase); assay: RT-qPCR of DCT in melanoma cells; format: cell-based, mouse
# Source text: as §3, §4
# [7] = test system: zebrafish embryos; assay: Toxicity in developing zebrafish embryos
# Experimental: as §2
# [8] = test system: MAPK; assay: Western blot for phosphorylated MAPK in melanoma cells; format: cell-based, mouse; details: melanoma cells (FIG. 19A)
# Source text: We wanted to further understand the molecular mechanism of A11 and its derivatives by examining the activities of MAPK, Akt, and PRPP pathways which regulate cell proliferation and cell death.
# MAPK is involved in the major cell proliferation signaling pathway. In many cancer cells, MAPK is activated at high level by phosphorylation. Using the anti-phosphorylated-MAPK (p-MAPK) on western blot, it is very easy to understand the proliferation ability in cells. […] While the results are against our hypothesis and current understanding, it raises a very interesting mechanism of A11 which requires further investigation. […] The current understanding is that activated MAPK and Akt both lead to cell proliferation.
# [9] = test system: MITF; assay: Western blot for MITF protein level in B16-F10 cells; format: cell-based, mouse; details: western blot vs DMSO control (FIG. 21)
# Source text: as §3
# [10] = test system: zebrafish embryos; assay: Effect on existing melanin and/or melanocytes, embryos treated at 48 hpf (Protocol 2); format: in vivo
# Experimental: (§5) The testing protocols for these compounds are as follows: • a. […] The embryos were monitored and imaged throughout their development to track the development of melanin pigment relative to a control group to which water was administered (Protocol 1). • b. To test the effects of the drugs on existing melanin and/or melanocytes, the embryos were treated with the chemicals at 48 hpf, after pigment had developed. The embryos were again monitored and imaged throughout their development relative to a control group to which water was administered (Protocol 2). • c. Additionally, to test the ability of the pigment to recover after being treated with our drugs, all embryos were treated at 24 hpf with the chemicals until the 48 hpf or 64 hpf time period, then washed with water to remove the treatment. The embryos were again monitored and imaged throughout their development relative to a control group to which water was administered (Protocol 3).
# To test the effects of the drugs on existing melanin and/or melanocytes, the embryos were treated with the chemicals A11, MEK-I and PTU at 48 hpf, after pigment had developed. The embryos were again monitored and imaged throughout their development according to Protocol 2.
# [11] = test system: Pax3; assay: RT-qPCR of Pax3 in melanoma cells; format: cell-based, mouse
# Source text: as §3, §4
# [12] = test system: MITF; assay: RT-qPCR of MITF (mit-f) in melanoma cells; format: cell-based, mouse
# Source text: as §3, §4
# [13] = test system: zebrafish embryos; assay: Pigment recovery after compound withdrawal (Protocol 3); format: in vivo; details: treated 24-48 hpf or 24-64 hpf, then washed; by 72 hpf
# Experimental: as §5
# It has been reported that melanin usually reappears after the withdrawal of skin whitening products. […] The pigmentation was monitored closely for 48-72 hours. Similarly, this experiment was repeated at least three times to gain a reproducible result.
# [14] = test system: MEK; assay: MEK activity (FIG. 12)
# Source text: FIG. 12 are photo illustrations of MEK activity with exemplary embodiments of the human drug treatments of the present invention; and
# (§6) The intracellular signaling pathway that involves Raf and MEK is known to be the major pathway to regulate cell proliferation. Many current melanoma drugs such as cobimetinib works by inhibiting Raf or MEK. While they are effective in inhibiting melanoma growth, they exert different degrees of side effect on normal cells by inhibiting the Raf-MEK pathway. […] Also, with regard to FIG. 13, the compound SK-03-92 is shown to inhibit melanoma cell growth by approximately 10% at 10 μM and at 100% at 40 μM.
# [15] = test system: transgenic melanoma zebrafish embryos; assay: Melanoma formation and recovery in transgenic melanoma zebrafish embryos; format: in vivo
# Experimental: as §6
structure (smiles),measurement,setting,value
COc1cc(O)cc(/C=C/Oc2cccc(OC)c2)c1 [Analog A8],Pigmentation,[1]; concentration not given,10%
COc1cc(O)cc(/C=C/Oc2cccc(C)c2)c1 [Analog A9],Average Melanoma growth (from the previous chart),[2]; 10 μM,78%
same,Average Melanoma growth (from the previous chart),[2]; 40 μM,76%
same,Growth,"[2]; melanoma cells, 10 μM",78%
same,Growth,"[2]; melanoma cells, 40 μM",76%
same,Melanin,[3]; 10 μM,101%
same,Melanin,[3]; 40 μM,96%
same,Pigmentation,[1]; concentration not given,10%
OC[C@H]1O[C@@H](Oc2ccc(O)cc2)[C@H](O)[C@@H](O)[C@@H]1O [Arbutin],pigmentation in comparison to the control group,[4]; 100 μM,30%
COc1cc(O)cc(/C=C/Oc2ccccc2)c1 [CL1],Pigmentation,[1]; 40 uM,0% (40 uM)
COc1cc(/C=C/Oc2ccccc2)cc(OC)c1 [CL2],Pigmentation,[1]; concentration not given,5%
COc1cc(O)cc(/C=C/Sc2ccccc2)c1 [CL4],Average Melanoma growth (from the previous chart),[2]; 10 μM,93%
same,Growth,"[2]; melanoma cells, 10 μM",93%
same,Melanin,[3]; 10 μM,107%
same,Pigmentation,[1]; concentration not given,0%
COc1cc(O)cc(/C=C/c2cccs2)c1 [CL6],Pigmentation,[1]; concentration not given,0%
"N#CC(=C(N)Sc1ccccc1N)C(C#N)=C(N)Sc1ccccc1N [MEK-I, reference compound]",tyrosinase expression (in words),[5],decreased
same,Average Melanoma growth (from the previous chart),[2]; 10 μM,67%
same,Average Melanoma growth (from the previous chart),[2]; 20 μM,35%
same,Growth,"[2]; melanoma cells, 10 μM",72% and 62%
same,Melanin,[3]; 10 μM,104% and 78% and 94%
same,Melanin,[3]; 20 μM,82% and 84%
same,Pigmentation,"[4]; zebrafish embryos treated 24-76 hpf, 10 μM",60%
same,DCT expression (in words),[6],decreased
same,toxicity in embryos (in words),[7]; developing zebrafish embryos,various levels of toxicity; also recorded: Notocord toxicity is present
same,amount of p-MAPK / MAPK activity (in words),[8],effectively suppresses the amount of p-MAPK
same,MITF protein level (in words),[9],high level of MITF
same,effect on existing pigment (in words),[10],has no effect; also recorded: ineffective
same,Pax3 expression (in words),[11],increases Pax3 transcription
same,MITF (mit-f) mRNA expression (in words),[12],no effect on the MITF transcription
same,pigmentation recovered after wash-off,[13],100%
NC(=O)c1cccnc1 [Niacinamide],pigmentation in comparison to the control group,[4]; 1%,10%
"NC(=S)Nc1ccccc1 [PTU, phenylthiourea, reference compound]",Average Melanoma growth (from the previous chart),[2]; concentration not given,107%
same,Growth,"[2]; melanoma cells, concentration not given",87% and 107% and 128% and 106%
same,Melanin,[3]; concentration not given,59% and 67% and 89% and 64%
same,pigmentation inhibition (in words),[4]; zebrafish embryos treated 24-76 hpf,nearly complete pigmentation loss
same,Pigmentation,"[4]; zebrafish embryos treated 24-76 hpf, 0.003%",10%
same,toxicity in embryos (in words),[7]; developing zebrafish embryos,various levels of toxicity
same,effect on existing pigment (in words),[10],remove existing pigment
same,existing pigment remaining,[10],20%
same,pigmentation recovered after wash-off,[13],100%
"COc1cc(O)cc(/C=C/c2cc3ccccc3s2)c1 [SK0392, (E)-3-(2-(Benzo[b]thiophen-2-yl)vinyl)-5-methoxyphenol]",MEK activity (in words),[14],increasing MEK activity
same,Average Melanoma growth (from the previous chart),[2]; 10 μM,100%
same,inhibition at 10 µM,"[2]; Mus musculus, B16-F10, 10 μM (FIG. 13), read-out: inhibition of melanoma cell growth",~10%
same,inhibition at 40 µM,"[2]; Mus musculus, B16-F10, 40 μM (FIG. 13), read-out: inhibition of melanoma cell growth",100%
same,inhibition of melanoma cell growth / cell number (in words),[2]; melanoma cells,decrease of melanin as well as the cell number
same,Growth,"[2]; melanoma cells, 10 μM",100%
same,formation and recovery of melanoma (in words),[15],inhibited the formation and recovery of melanoma
same,Melanin,[3]; 10 μM,97%
same,melanin in B16-F10 cells (in words),[3]; mouse cell line B16-F10,decrease of melanin
same,toxicity in embryos (in words),"[7]; zebrafish, in vivo",almost no detectable toxicity
same,Pigmentation,[1]; 50 uM,20% (50 uM)
COc1cc(O)cc(/C=C/Sc2ccccc2C(C)C)c1 [SK0501],Pigmentation,[1]; concentration not given,0%
COc1ccc(S/C=C/c2cc(O)cc(OC)c2)cc1 [SK0503],Pigmentation,[1]; concentration not given,0%
COc1cc(O)cc(/C=C/n2ccc(C(F)(F)F)n2)c1 [SK0951],Pigmentation,[1]; concentration not given,0%
COc1cc(O)cc(/C=C/n2ccc3ccccc32)c1 [SK0953],Average Melanoma growth (from the previous chart),[2]; 20 μM,71%
same,Growth,"[2]; melanoma cells, 20 μM",71%
same,Melanin,[3]; 20 μM,96%
same,Pigmentation,[1]; concentration not given,0%
COc1cc(O)cc(/C=C/n2ncc3ccccc32)c1 [SK0954],Pigmentation,[1]; concentration not given,0%
CC1=C(/C=C/C(C)=C/C=C/C(C)=C/C(=O)O)C(C)(C)CCC1 [Tretinoin],pigmentation in comparison to the control group,[4]; 0.1%,80%
